In US8569376B2, “Methods and compositions for reducing body fat and adipocytes” (Topokine Therapeutics, Inc., priority 2011, dated 2013):
“Also recorded” adds a separate entry of the source. Marks after values point to notes of the source that are not given here.

Columns and labels:
[1] = Randomized controlled trial in (db-/db-) mice, topical to flank: body weight change; type: in vivo, mouse; settings: 21-day study; for Absolute weight change / Relative weight change: 5 mM topical, 0.1 cc to flank daily
Description: (§1) A randomized controlled trial was conducted on (db-/db-) mice. Mice six weeks old were prospectively randomized into groups and assigned to the following treatment conditions (n=5 animals per group): [table] At the start of the study, hair on the right flank of each animal was clipped and depilated. Animals were kept in identical conditions and fed ab libitum. Animals were weighed daily. Following 21 consecutive days of treatment, samples of skin and adjacent fat were obtained from the treated flanks, fixed in formalin, and stained with hematoxylin and eosin for histologic examination.

[2] = system: adipose tissue and adipocytes; test: Randomized controlled trial in (db-/db-) mice: histologic examination of treated skin and subcutaneous fat; type: in vivo, mouse; settings: treated flank, after 21 days of 5 mM topical treatment
Description: as §1

[3] = system: human preadipocytes; settings: human preadipocytes in primary cell culture; cited from earlier work
[4] = system: peroxisome proliferator-activated receptor-gamma (PPARγ), CCAAT-enhancer-binding protein α (C/EBPα), and lipoprotein lipase; settings: human preadipocytes; no statistical differences; cited from earlier work
[5] = system: dorsocervical fat pad; test: Randomized double-blind study in HIV lipodystrophy subjects, dorsocervical fat by US/CT; type: in vivo; settings: human, e.g. 0.03% in transdermal vehicle once a day, e.g. after 3 months
Source text: The following experiment describes a randomized, double-blind study in human subjects to test whether locally administered Tafluprost reduces fat in the dorsocervical fat pad of HIV-seropositive patients on antiretroviral therapy who are suffering from HIV lipodystrophy. Eligible subjects (for example, n=40) with HIV lipodystrophy and abnormal accumulation of fat on the dorsal neck are entered into a randomized double-blind study. Subjects are randomized in 1:1 fashion to receive either Tafluprost, for example, 0.03%, in a suitable transdermal vehicle, or vehicle alone. The vehicle is, for example, Lipoderm® (PCCA, Houston, Tex.). Unit-dose syringes (for example, 0.5 ml per syringe) are furnished to subjects by a study pharmacist; syringes are unlabeled as to the presence of Tafluprost or vehicle. Subjects are instructed to apply, once a day, the contents of one syringe to the affected area on the back of the neck. Serial ultrasound (US) and/or computed tomography (CT) scans are conducted at the beginning of the study and then at monthly intervals. Treatment continues for 6 months.

Structure (SMILES) | Absolute weight change [1] | Relative weight change [1] | weight gain ([1]; topical) | adipose thickness and adipocyte size in histologic sections, compared to Vehicle [2] | adipocyte differentiation [3] | inhibition of expression of adipogenic genes PPARγ, C/EBPα and lipoprotein lipase [4] | weight loss ([1]; topical) | reduction in depth and/or cross-sectional area of dorsocervical fat by serial US or CT, compared to vehicle alone [5]
CCNC(=O)CCC/C=C\C[C@@H]1[C@@H](/C=C/[C@@H](O)CCc2ccccc2)[C@H](O)C[C@@H]1O [Bimatoprost] | 6.4 g | 22.9% over Day 0 | 23-24 % of baseline body weight | did not show these effects | 30 % of control | slightly more inhibition than Tafluprost | – | –
CC(C)OC(=O)CCC/C=C\C[C@@H]1[C@@H](/C=C/C(F)(F)COc2ccccc2)[C@H](O)C[C@@H]1O [Tafluprost] | −2.4* g | −8.2% over Day 0 | – | reduced adipose thickness and adipocyte size; also recorded: inhibited adipose tissue and adipocytes | 40 % of control | – | about 8 % of baseline body weight | more reduction in the depth and/or cross-sectional area of dorsocervical fat
